# Experimental data published in US20240358692A1, “TREATMENT OF SCLERODERMA” (Aisa Pharma, Inc., priority 2023, published 2024).
# System: participants with SSc-RP
# Assay: Average duration of weekly RP attacks (minutes), patient diary
# Type: in vivo, human
# From the text: The absolute change in average duration of weekly RP attacks from baseline to the end of each dosing period was and will be a secondary outcome variable. The sponsor-developed participant-informed diary was and will be used to record data. Average duration of weekly RP attacks is defined as the total duration of RP attacks divided by total number of RP attacks within the last 7 days of each dosing period. Total duration of RP attacks during the last 7 days of screening period divided by the total number of RP attacks will be used as baseline for the analysis of all periods. The variable will be calculated similar to frequency data as before.
# [1] = Cilnidipine 10 mg, Excluding Outliers, ITT Population - Part A
# [2] = Cilnidipine 10 mg, Excluding Outliers, by Baseline RCS, first RCS subgroup of table (not named), ITT Population - Part A
# [3] = Cilnidipine 10 mg, by Baseline RCS, first RCS subgroup of table (not named), ITT Population - Part A
# [4] = Cilnidipine 10 mg, by Baseline RCS, first subgroup of table, ITT Population - Part A
# [5] = Cilnidipine 20 mg, Excluding Outliers, ITT Population - Part A
# [6] = Cilnidipine 20 mg, Excluding Outliers, by Baseline RCS, first RCS subgroup of table (not named), ITT Population - Part A
# [7] = Cilnidipine 20 mg, by Baseline RCS, first RCS subgroup of table (not named), ITT Population - Part A
# [8] = Cilnidipine 20 mg, by Baseline RCS, first subgroup of table, ITT Population - Part A
# [9] = Pooled Cilnidipine 10 mg and Cilnidipine 10 mg + Tadalafil 5 mg, Excluding Outliers, ITT Population - Part A
# [10] = Pooled Cilnidipine 10 mg and Cilnidipine 10 mg + Tadalafil 5 mg, ITT Population - Part A
# [11] = Pooled Cilnidipine 10 mg and Cilnidipine 10 mg + Tadalafil 5 mg, by Baseline RCS, first subgroup of table, ITT Population - Part A
# [12] = Pooled Cilnidipine 10 mg and Cilnidipine 10 mg + Tadalafil 5 mg, by Baseline RCS, second subgroup of table, ITT Population - Part A
# [13] = Pooled Cilnidipine 20 mg and Cilnidipine 20 mg + Tadalafil 5 mg, Excluding Outliers, ITT Population - Part A
# [14] = Pooled Cilnidipine 20 mg and Cilnidipine 20 mg + Tadalafil 5 mg, Excluding Outliers, by Baseline RCS, second RCS subgroup of table (not named), ITT Population - Part A
# [15] = Pooled Cilnidipine 20 mg and Cilnidipine 20 mg + Tadalafil 5 mg, by Baseline RCS, first subgroup of table, ITT Population - Part A
# [16] = Pooled Cilnidipine 20 mg and Cilnidipine 20 mg + Tadalafil 5 mg, by Baseline RCS, second RCS subgroup of table (not named), ITT Population - Part A
# [17] = Pooled Cilnidipine 20 mg and Cilnidipine 20 mg + Tadalafil 5 mg, by Baseline RCS, second subgroup of table, ITT Population - Part A
structure (smiles),measurement,setting,value
COCCOC(=O)C1=C(C)NC(C)=C(C(=O)OC/C=C/c2ccccc2)C1c1cccc([N+](=O)[O-])c1 (stereo not shown) [Cilnidipine],"Average Duration of Weekly RP Attacks (All Attacks), Change from Baseline, Mean",[1],-8.48 min
same,"Average Duration of Weekly RP Attacks (All Attacks), Percent Change from Baseline, Mean",[1],−21.20%
same,"Average Duration of weekly symptomatic RP attacks, Mean",[1],31.64 min
same,"Average Duration of weekly symptomatic RP attacks, Median",[1],31.64 min
same,"Percent Change from Baseline in average duration of weekly symptomatic RP attacks, Median",[1],−34.60%
same,"Average Duration of weekly symptomatic RP attacks, Mean",[2],31.64 min
same,"Average Duration of weekly symptomatic RP attacks, Median",[2],31.64 min
same,"Change from Baseline in average duration of weekly symptomatic RP attacks, Mean",[2],-16.74 min
same,"Change from Baseline in average duration of weekly symptomatic RP attacks, Median",[2],-16.74 min
same,"Percent Change from Baseline in average duration of weekly symptomatic RP attacks, Mean",[2],−34.60%
same,"Percent Change from Baseline in average duration of weekly symptomatic RP attacks, Median",[2],−34.60%
same,"Average Duration of Weekly Symptomatic RP Attacks Change from Baseline, Mean","Cilnidipine 10 mg, ITT Part A",-16.74 min
same,"Average Duration of Weekly Symptomatic RP Attacks Change from Baseline, Median","Cilnidipine 10 mg, ITT Part A",-16.74 min
same,"Average Duration of Weekly Symptomatic RP Attacks Percent Change from Baseline, Mean","Cilnidipine 10 mg, ITT Part A",−34.60%
same,"Average Duration of Weekly Symptomatic RP Attacks Percent Change from Baseline, Median","Cilnidipine 10 mg, ITT Part A",−34.60%
same,"Average Duration of weekly symptomatic RP attacks, Mean",[3],31.64 min
same,"Average Duration of weekly symptomatic RP attacks, Median",[3],31.64 min
same,"Change from Baseline in average duration of weekly symptomatic RP attacks, Mean",[3],-16.74 min
same,"Change from Baseline in average duration of weekly symptomatic RP attacks, Median",[3],-16.74 min
same,"Percent Change from Baseline in average duration of weekly symptomatic RP attacks, Mean",[3],−34.60%
same,"Percent Change from Baseline in average duration of weekly symptomatic RP attacks, Median",[3],−34.60%
same,"Average Duration of Weekly RP Attacks (All Attacks), Mean",[4],31.52 min
same,"Average Duration of Weekly RP Attacks (All Attacks), Median",[4],31.52 min
same,"Average Duration of weekly symptomatic RP attacks, Mean","Cilnidipine 10 mg, last 7 days of dosing period, ITT Part A",31.64 min
same,Duration (change),Cilnidipine 20 mg (n = 3),−20%
same,"Average Duration of Weekly RP Attacks (All Attacks), Change from Baseline, Mean",[5],-1.09 min
same,"Average Duration of Weekly RP Attacks (All Attacks), Change from Baseline, Median",[5],-1.09 min
same,"Average Duration of Weekly RP Attacks (All Attacks), Percent Change from Baseline, Mean",[5],−24.97%
same,"Average Duration of Weekly RP Attacks (All Attacks), Percent Change from Baseline, Median",[5],−24.97%
same,"Average Duration of weekly symptomatic RP attacks, Mean",[5],16.73 min
same,"Average Duration of weekly symptomatic RP attacks, Median",[5],16.73 min
same,"Change from Baseline in average duration of weekly symptomatic RP attacks, Mean",[5],-3.13 min
same,"Change from Baseline in average duration of weekly symptomatic RP attacks, Median",[5],-3.13 min
same,"Percent Change from Baseline in average duration of weekly symptomatic RP attacks, Mean",[5],−31.05%
same,"Percent Change from Baseline in average duration of weekly symptomatic RP attacks, Median",[5],−31.05%
same,"Average Duration of weekly symptomatic RP attacks, Mean",[6],16.73 min
same,"Average Duration of weekly symptomatic RP attacks, Median",[6],16.73 min
same,"Change from Baseline in average duration of weekly symptomatic RP attacks, Mean",[6],-3.13 min
same,"Change from Baseline in average duration of weekly symptomatic RP attacks, Median",[6],-3.13 min
same,"Percent Change from Baseline in average duration of weekly symptomatic RP attacks, Mean",[6],−31.05%
same,"Percent Change from Baseline in average duration of weekly symptomatic RP attacks, Median",[6],−31.05%
same,"Average Duration of Weekly Symptomatic RP Attacks Change from Baseline, Mean","Cilnidipine 20 mg, ITT Part A",-3.13 min
same,"Average Duration of Weekly Symptomatic RP Attacks Change from Baseline, Median","Cilnidipine 20 mg, ITT Part A",-3.13 min
same,"Average Duration of Weekly Symptomatic RP Attacks Percent Change from Baseline, Mean","Cilnidipine 20 mg, ITT Part A",−31.05%
same,"Average Duration of Weekly Symptomatic RP Attacks Percent Change from Baseline, Median","Cilnidipine 20 mg, ITT Part A",−31.05%
same,"Average Duration of weekly symptomatic RP attacks, Mean",[7],16.73 min
same,"Average Duration of weekly symptomatic RP attacks, Median",[7],16.73 min
same,"Change from Baseline in average duration of weekly symptomatic RP attacks, Mean",[7],-3.13 min
same,"Change from Baseline in average duration of weekly symptomatic RP attacks, Median",[7],-3.13 min
same,"Percent Change from Baseline in average duration of weekly symptomatic RP attacks, Mean",[7],−31.05%
same,"Percent Change from Baseline in average duration of weekly symptomatic RP attacks, Median",[7],−31.05%
same,"Average Duration of Weekly RP Attacks (All Attacks), Mean",[8],16.73 min
same,"Average Duration of Weekly RP Attacks (All Attacks), Median",[8],16.73 min
same,"Average Duration of weekly symptomatic RP attacks, Median",[9],31.64 min
same,"Change from Baseline in average duration of weekly symptomatic RP attacks, Mean",[9],-12.11 min
same,"Change from Baseline in average duration of weekly symptomatic RP attacks, Median",[9],-16.74 min
same,"Percent Change from Baseline in average duration of weekly symptomatic RP attacks, Mean",[9],−22.40%
same,"Percent Change from Baseline in average duration of weekly symptomatic RP attacks, Median",[9],−33.84%
same,"Average Duration of Weekly Symptomatic RP Attacks Change from Baseline, Median","Pooled Cilnidipine 10 mg and Cilnidipine 10 mg + Tadalafil 5 mg, ITT Part A",-16.74 min
same,"Average Duration of Weekly RP Attacks (All Attacks), Change from Baseline, Median",[10],-8.48 min
same,"Average Duration of Weekly RP Attacks (All Attacks), Percent Change from Baseline, Median",[10],−21.20%
same,"Percent Change from Baseline in average duration of weekly symptomatic RP attacks, Mean","Pooled Cilnidipine 10 mg and Cilnidipine 10 mg + Tadalafil 5 mg, by Baseline RCS, first RCS subgroup of table (not named), ITT Population - Part A",−16.67%
same,"Average Duration of Weekly RP Attacks (All Attacks), Change from Baseline, Mean",[11],-4.13 min
same,"Average Duration of Weekly RP Attacks (All Attacks), Change from Baseline, Median",[11],-4.13 min
same,"Average Duration of Weekly RP Attacks (All Attacks), Mean",[11],24.76 min
same,"Average Duration of Weekly RP Attacks (All Attacks), Median",[11],24.76 min
same,"Average Duration of Weekly RP Attacks (All Attacks), Percent Change from Baseline, Mean",[11],−9.97%
same,"Average Duration of Weekly RP Attacks (All Attacks), Percent Change from Baseline, Median",[11],−9.97%
same,"Average Duration of Weekly RP Attacks (All Attacks), Change from Baseline, Mean",[12],-20.38 min
same,"Average Duration of Weekly RP Attacks (All Attacks), Change from Baseline, Median",[12],-20.38 min
same,"Average Duration of Weekly RP Attacks (All Attacks), Mean",[12],34.17 min
same,"Average Duration of Weekly RP Attacks (All Attacks), Median",[12],34.17 min
same,"Average Duration of Weekly RP Attacks (All Attacks), Percent Change from Baseline, Mean",[12],−37.36%
same,"Average Duration of Weekly RP Attacks (All Attacks), Percent Change from Baseline, Median",[12],−37.36%
same,"Average Duration of weekly symptomatic RP attacks, Mean","Pooled Cilnidipine 10 mg and Cilnidipine 10 mg + Tadalafil 5 mg, last 7 days of dosing period, ITT Part A",29.46 min
same,"Change from Baseline in average duration of weekly symptomatic RP attacks, Mean",[13],-7.51 min
same,"Change from Baseline in average duration of weekly symptomatic RP attacks, Median",[13],-3.55 min
same,"Percent Change from Baseline in average duration of weekly symptomatic RP attacks, Mean",[13],−16.40%
same,"Percent Change from Baseline in average duration of weekly symptomatic RP attacks, Median",[13],−7.30%
same,"Change from Baseline in average duration of weekly symptomatic RP attacks, Mean",[14],-27.00 min
same,"Change from Baseline in average duration of weekly symptomatic RP attacks, Median",[14],-27.00 min
same,"Percent Change from Baseline in average duration of weekly symptomatic RP attacks, Mean",[14],−30.00%
same,"Percent Change from Baseline in average duration of weekly symptomatic RP attacks, Median",[14],−30.00%
same,"Average Duration of Weekly RP Attacks (All Attacks), Change from Baseline, Mean",[15],0.00 min
same,"Average Duration of Weekly RP Attacks (All Attacks), Change from Baseline, Median",[15],2.16 min
same,"Average Duration of Weekly RP Attacks (All Attacks), Mean",[15],15.91 min
same,"Average Duration of Weekly RP Attacks (All Attacks), Median",[15],14.27 min
same,"Average Duration of Weekly RP Attacks (All Attacks), Percent Change from Baseline, Mean",[15],−10.70%
same,"Average Duration of Weekly RP Attacks (All Attacks), Percent Change from Baseline, Median",[15],17.86%
same,"Change from Baseline in average duration of weekly symptomatic RP attacks, Mean",[16],-27.00 min
same,"Change from Baseline in average duration of weekly symptomatic RP attacks, Median",[16],-27.00 min
same,"Percent Change from Baseline in average duration of weekly symptomatic RP attacks, Mean",[16],−30.00%
same,"Percent Change from Baseline in average duration of weekly symptomatic RP attacks, Median",[16],−30.00%
same,"Average Duration of Weekly RP Attacks (All Attacks), Change from Baseline, Mean",[17],-19.09 min
same,"Average Duration of Weekly RP Attacks (All Attacks), Change from Baseline, Median",[17],-19.09 min
same,"Average Duration of Weekly RP Attacks (All Attacks), Mean",[17],62.73 min
same,"Average Duration of Weekly RP Attacks (All Attacks), Median",[17],62.73 min
